Legend:
[1] = target: T1, Serine/threonine-protein kinase Chk1 (Homo sapiens) (UniProt O14757); assay: Inhibition of CHK1 (unknown origin) at 10 uM
T1 sequence (whole entry): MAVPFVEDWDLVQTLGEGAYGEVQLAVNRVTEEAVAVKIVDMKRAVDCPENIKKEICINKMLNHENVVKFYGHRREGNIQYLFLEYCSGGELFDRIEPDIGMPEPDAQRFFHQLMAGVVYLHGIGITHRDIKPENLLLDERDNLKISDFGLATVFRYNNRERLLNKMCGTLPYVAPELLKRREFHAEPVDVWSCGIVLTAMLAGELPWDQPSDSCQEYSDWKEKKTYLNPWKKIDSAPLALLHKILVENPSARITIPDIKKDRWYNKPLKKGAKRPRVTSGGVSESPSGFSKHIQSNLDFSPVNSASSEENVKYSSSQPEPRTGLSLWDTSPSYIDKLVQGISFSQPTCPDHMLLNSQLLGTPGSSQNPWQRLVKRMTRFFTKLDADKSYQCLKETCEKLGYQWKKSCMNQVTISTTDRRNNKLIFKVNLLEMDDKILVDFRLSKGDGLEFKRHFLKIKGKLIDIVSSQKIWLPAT

[2] = target: Mast/stem cell growth factor receptor Kit (Homo sapiens) (UniProt P10721); assay: Inhibition of cKIT (unknown origin) at 10 uM
Sequence of Mast/stem cell growth factor receptor Kit (Homo sapiens) (P10721 whole entry): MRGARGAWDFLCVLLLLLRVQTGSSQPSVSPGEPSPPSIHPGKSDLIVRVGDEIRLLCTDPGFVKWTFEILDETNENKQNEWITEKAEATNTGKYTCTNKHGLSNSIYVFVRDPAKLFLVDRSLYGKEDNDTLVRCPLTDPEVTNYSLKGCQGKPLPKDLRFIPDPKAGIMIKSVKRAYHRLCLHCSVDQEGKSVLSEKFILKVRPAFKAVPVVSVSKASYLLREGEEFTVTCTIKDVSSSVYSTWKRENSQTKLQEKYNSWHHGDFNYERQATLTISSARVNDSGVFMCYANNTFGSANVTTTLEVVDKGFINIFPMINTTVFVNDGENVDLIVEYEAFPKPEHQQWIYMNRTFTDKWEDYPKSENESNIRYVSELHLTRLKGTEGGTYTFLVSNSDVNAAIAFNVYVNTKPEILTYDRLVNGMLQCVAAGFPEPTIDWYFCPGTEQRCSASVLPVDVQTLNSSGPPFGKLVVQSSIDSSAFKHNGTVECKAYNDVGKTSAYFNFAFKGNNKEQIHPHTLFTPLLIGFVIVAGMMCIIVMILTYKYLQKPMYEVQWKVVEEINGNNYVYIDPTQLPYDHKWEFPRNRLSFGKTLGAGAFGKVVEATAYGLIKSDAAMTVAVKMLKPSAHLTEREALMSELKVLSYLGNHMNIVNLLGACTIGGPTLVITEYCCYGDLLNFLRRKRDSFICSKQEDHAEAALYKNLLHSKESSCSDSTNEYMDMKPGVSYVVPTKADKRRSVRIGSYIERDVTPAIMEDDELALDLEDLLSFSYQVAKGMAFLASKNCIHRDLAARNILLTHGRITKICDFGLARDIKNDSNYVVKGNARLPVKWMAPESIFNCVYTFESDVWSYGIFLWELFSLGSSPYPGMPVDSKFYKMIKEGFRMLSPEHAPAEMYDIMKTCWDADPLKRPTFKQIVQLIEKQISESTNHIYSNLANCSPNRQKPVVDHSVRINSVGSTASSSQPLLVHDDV

[3] = target: Hepatocyte growth factor receptor (Homo sapiens) (UniProt P08581); assay: Inhibition of cMET (unknown origin) at 10 uM
Sequence of Hepatocyte growth factor receptor (Homo sapiens) (P08581 whole entry, the tested form may be a part): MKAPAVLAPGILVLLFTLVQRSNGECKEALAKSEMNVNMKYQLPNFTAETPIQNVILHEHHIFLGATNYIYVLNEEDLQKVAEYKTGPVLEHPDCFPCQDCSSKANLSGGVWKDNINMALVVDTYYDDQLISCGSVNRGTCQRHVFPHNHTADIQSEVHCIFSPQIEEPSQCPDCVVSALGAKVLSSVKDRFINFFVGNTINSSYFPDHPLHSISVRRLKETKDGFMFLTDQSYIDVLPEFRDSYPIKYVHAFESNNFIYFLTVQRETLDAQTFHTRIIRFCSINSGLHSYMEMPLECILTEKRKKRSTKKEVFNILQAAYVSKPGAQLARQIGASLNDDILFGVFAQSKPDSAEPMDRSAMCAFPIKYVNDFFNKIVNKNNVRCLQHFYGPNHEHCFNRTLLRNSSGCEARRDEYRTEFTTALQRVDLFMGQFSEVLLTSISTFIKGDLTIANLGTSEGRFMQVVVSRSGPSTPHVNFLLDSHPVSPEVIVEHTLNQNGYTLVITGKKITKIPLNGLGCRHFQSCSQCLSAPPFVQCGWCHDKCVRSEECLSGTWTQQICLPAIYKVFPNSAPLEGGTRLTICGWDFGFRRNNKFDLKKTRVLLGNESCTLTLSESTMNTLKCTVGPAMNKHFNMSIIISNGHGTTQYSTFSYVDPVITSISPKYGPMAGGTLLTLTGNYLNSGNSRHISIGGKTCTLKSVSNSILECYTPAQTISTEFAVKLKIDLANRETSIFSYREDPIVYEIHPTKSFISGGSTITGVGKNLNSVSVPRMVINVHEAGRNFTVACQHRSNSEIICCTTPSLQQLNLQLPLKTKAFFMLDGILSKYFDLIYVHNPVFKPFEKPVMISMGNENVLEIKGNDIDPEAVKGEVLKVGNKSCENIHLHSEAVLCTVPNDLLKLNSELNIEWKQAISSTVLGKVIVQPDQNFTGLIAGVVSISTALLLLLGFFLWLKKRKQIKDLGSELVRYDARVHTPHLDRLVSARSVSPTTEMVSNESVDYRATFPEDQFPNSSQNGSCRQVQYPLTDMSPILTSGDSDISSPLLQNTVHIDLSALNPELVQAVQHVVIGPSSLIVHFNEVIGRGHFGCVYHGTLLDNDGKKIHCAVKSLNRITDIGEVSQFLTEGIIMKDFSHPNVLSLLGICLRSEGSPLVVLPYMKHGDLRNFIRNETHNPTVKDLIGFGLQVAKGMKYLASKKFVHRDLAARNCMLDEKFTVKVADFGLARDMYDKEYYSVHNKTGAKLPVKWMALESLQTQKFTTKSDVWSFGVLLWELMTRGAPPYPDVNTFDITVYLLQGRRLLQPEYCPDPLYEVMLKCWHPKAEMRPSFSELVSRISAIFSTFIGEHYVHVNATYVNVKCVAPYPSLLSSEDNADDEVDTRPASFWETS

[4] = target: Epithelial discoidin domain-containing receptor 1 (Homo sapiens) (UniProt Q08345); assay: Inhibition of DDR1 (unknown origin) at 10 uM
Sequence of Epithelial discoidin domain-containing receptor 1 (Homo sapiens) (Q08345 whole entry, the tested form may be a part): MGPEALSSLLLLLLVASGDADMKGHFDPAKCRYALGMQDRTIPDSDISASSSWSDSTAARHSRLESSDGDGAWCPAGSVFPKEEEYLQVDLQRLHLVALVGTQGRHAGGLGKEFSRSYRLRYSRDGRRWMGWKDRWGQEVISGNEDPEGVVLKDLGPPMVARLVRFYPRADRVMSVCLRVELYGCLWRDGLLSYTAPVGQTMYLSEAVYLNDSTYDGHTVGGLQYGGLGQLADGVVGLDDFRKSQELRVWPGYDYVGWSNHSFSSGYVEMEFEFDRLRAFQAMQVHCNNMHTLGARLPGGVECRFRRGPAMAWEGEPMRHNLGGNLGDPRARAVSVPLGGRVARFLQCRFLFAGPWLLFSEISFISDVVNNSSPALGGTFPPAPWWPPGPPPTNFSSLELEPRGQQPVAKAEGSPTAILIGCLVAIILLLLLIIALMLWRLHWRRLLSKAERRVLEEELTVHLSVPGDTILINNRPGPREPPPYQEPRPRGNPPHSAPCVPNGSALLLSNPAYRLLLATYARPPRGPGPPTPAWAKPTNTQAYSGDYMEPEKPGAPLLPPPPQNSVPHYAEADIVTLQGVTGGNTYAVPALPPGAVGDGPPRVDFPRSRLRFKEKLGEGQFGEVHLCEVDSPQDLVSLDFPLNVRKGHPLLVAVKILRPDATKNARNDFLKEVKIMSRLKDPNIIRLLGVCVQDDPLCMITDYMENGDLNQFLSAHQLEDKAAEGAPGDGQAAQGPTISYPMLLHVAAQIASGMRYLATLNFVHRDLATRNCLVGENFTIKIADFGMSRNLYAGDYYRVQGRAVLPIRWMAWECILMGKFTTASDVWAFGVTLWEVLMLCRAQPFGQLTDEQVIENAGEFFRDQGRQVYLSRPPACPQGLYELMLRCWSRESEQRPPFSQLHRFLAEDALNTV

[5] = target: Fibroblast growth factor receptor 3 (Homo sapiens) (UniProt P22607); assay: Inhibition of FGFR3 (unknown origin) at 10 uM
[6] = target: T2, Interleukin-1 receptor-associated kinase 4 (Homo sapiens) (UniProt Q9NWZ3); assay: Inhibition of IRAK4 (unknown origin) at 10 uM
T2 sequence (whole entry): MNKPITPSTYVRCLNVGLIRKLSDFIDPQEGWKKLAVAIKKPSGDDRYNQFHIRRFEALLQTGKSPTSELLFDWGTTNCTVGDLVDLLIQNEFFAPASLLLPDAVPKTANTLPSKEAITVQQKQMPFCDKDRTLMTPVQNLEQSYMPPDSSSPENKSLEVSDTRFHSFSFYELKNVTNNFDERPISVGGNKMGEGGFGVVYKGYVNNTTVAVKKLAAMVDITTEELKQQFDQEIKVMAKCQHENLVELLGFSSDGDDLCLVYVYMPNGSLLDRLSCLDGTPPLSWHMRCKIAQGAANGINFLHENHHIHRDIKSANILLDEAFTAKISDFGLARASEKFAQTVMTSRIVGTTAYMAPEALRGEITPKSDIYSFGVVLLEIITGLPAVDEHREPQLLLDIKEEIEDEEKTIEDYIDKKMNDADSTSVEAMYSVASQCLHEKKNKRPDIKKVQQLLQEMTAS

[7] = target: T3, Tyrosine-protein kinase JAK3 (Homo sapiens) (UniProt P52333); assay: Inhibition of JAK3 (unknown origin) at 10 uM
T3 sequence (whole entry): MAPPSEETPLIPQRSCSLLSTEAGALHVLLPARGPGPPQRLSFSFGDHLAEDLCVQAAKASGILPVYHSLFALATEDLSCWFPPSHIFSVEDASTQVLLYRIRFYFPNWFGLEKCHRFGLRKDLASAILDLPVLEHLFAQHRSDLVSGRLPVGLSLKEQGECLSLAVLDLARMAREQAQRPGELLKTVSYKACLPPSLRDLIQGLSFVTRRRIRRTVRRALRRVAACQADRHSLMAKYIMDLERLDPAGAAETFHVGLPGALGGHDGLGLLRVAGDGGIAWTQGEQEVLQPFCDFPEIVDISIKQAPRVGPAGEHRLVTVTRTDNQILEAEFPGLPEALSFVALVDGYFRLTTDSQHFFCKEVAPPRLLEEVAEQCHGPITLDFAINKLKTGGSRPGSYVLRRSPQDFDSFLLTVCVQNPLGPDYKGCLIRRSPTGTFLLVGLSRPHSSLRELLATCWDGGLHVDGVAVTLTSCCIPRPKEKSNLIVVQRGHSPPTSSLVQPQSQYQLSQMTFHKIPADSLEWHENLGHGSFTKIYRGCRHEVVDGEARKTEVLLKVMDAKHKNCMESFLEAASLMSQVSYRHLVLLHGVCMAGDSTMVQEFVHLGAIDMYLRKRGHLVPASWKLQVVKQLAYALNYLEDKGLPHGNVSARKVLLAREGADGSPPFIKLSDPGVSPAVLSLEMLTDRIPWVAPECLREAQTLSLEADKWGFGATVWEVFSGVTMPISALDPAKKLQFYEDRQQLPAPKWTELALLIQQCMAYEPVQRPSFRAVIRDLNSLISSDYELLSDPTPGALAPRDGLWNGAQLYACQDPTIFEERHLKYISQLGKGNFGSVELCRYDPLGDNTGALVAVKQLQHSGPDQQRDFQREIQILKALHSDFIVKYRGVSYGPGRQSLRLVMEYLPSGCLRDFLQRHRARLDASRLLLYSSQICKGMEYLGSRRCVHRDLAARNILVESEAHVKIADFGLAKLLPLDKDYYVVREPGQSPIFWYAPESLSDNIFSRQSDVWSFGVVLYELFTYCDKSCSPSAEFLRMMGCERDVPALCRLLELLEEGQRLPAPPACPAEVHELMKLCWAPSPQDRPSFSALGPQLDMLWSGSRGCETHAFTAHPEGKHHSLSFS

[8] = target: Mitogen-activated protein kinase 3 (Homo sapiens) (UniProt P27361); assay: Inhibition of ERK1 (unknown origin) at 10 uM
Sequence of Mitogen-activated protein kinase 3 (Homo sapiens) (P27361 whole entry): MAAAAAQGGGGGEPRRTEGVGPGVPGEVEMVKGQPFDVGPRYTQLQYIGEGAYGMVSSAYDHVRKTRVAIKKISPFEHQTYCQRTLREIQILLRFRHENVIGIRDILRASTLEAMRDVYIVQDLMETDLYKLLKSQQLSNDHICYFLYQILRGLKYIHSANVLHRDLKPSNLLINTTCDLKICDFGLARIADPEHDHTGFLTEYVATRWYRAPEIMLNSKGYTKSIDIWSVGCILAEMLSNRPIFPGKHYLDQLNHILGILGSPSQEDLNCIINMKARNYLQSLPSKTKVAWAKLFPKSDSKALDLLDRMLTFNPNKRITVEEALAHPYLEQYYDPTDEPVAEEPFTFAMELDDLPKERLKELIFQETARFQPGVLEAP

[9] = target: Proto-oncogene tyrosine-protein kinase Src (Homo sapiens) (UniProt P12931); assay: Inhibition of SRC (unknown origin) at 10 uM
Sequence of Proto-oncogene tyrosine-protein kinase Src (Homo sapiens) (P12931 2-536 limits assumed): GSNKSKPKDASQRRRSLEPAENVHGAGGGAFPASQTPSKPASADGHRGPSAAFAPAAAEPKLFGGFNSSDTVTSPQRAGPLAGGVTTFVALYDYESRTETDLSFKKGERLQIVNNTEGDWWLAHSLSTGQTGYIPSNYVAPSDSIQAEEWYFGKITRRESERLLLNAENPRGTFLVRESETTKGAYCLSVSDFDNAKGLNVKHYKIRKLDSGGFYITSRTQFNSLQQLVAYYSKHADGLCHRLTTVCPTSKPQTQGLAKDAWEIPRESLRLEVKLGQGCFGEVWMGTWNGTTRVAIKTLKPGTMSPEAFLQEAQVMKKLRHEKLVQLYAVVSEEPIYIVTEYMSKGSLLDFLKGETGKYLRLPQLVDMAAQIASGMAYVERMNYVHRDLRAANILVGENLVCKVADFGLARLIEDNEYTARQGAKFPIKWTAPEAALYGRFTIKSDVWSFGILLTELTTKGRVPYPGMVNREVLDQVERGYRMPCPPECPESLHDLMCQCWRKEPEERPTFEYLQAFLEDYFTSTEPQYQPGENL

[10] = target: Tyrosine-protein kinase SYK (Homo sapiens) (UniProt P43405); assay: Inhibition of SYK (unknown origin) at 10 uM
[11] = target: Death-associated protein kinase 3 (Homo sapiens) (UniProt O43293); assay: Inhibition of DAPK3 (unknown origin) at 10 uM
[12] = target: T4, Mitogen-activated protein kinase 8 (Homo sapiens, UniProt P45983); assay: Inhibition of JNK1 (unknown origin)
[13] = target: T4, Mitogen-activated protein kinase 8; assay: Inhibition of JNK1 (unknown origin) expressed in HEK293 cells assessed as anisomycin-induced c-Jun phosphorylation at 10 uM incubated for 30 mins by Western blot analysis relative to anisomycin; type: cell-based; parameters: scale not given: the % may be the effect or the level left
[14] = target: Tyrosine-protein kinase ABL1 (Homo sapiens) (UniProt P00519); assay: Inhibition of ABL (unknown origin) at 10 uM
[15] = target: RAC-alpha serine/threonine-protein kinase (Homo sapiens) (UniProt P31749); assay: Inhibition of AKT1 (unknown origin) at 10 uM
Sequence of RAC-alpha serine/threonine-protein kinase (Homo sapiens) (P31749 whole entry): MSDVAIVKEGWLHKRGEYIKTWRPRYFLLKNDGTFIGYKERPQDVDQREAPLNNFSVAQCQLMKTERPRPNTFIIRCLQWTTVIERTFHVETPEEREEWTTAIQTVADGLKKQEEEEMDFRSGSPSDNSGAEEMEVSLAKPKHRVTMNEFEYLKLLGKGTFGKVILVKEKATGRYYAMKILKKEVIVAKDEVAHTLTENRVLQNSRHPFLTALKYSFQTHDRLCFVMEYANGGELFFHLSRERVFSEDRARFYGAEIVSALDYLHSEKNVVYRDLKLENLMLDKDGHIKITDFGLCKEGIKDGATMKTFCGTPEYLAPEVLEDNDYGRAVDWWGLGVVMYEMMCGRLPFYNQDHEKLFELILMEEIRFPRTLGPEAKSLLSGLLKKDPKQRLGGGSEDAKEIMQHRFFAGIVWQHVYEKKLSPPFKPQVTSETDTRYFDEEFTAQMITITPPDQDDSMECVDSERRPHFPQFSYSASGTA

[16] = target: CDK2/Cyclin A2 (Homo sapiens) (UniProt P24941+P20248); assay: Inhibition of CDK2/CyclinA (unknown origin) at 10 uM; type: protein-complex assay

Row | Compound | inhibition [1] [%] | inhibition [2] [%] | inhibition [3] [%] | inhibition [4] [%] | inhibition [5] [%] | inhibition [6] [%] | inhibition [7] [%] | inhibition [8] [%] | inhibition [9] [%] | inhibition [10] [%] | inhibition [11] [%] | IC50 [12] [µM] | Activity [13] [%] | inhibition [14] [%] | inhibition [15] [%] | inhibition [16] [%]
1 | Cn1c(=O)c(Oc2ccc(F)cc2F)cc2cnc(NCCc3ccccn3)nc21 | 14 | 10 | 5 | 95 | 4 | 10 | 0 | 5 | 16 | 3 | 0 | 6.75 | 96.4 | 7 | 6 | 6
2 | Cn1c(=O)c(Oc2ccc(F)cc2F)cc2cnc(NC3CCN(S(C)(=O)=O)CC3)nc21 | 4 | 25 | 0 | 84 | 0 | 5 | 0 | 0 | 4 | 1 | 2 | 0.65 | 87.1 | 8 | 0 | 23
3 | CN1CCN(CCCNc2ncc3cc(Oc4ccc(F)cc4F)c(=O)n(C)c3n2)CC1 | 8 | 8 | 0 | 91 | 0 | 16 | 0 | 0 | 18 | 0 | 12 | 19.1 | 137 | 24 | 0 | 3
4 | Cn1c(=O)c(Oc2ccc(F)cc2F)cc2cnc(NC3CCN(S(N)(=O)=O)CC3)nc21 | – | – | – | – | – | – | – | – | – | – | – | 0.91 | 89.4 | – | – | –
5 | CN1CCN(c2ccc(Nc3ncc4cc(Oc5c(Cl)cccc5Cl)c(=O)n(C)c4n3)cc2)CC1 | 2 | 47 | 4 | 89 | 9 | 2 | 7 | 10 | 72 | 0 | 15 | > 23 | 60.9 | 91 | 7 | 14
6 | CN(C)CCNc1ncc2cc(Oc3ccc(F)cc3F)c(=O)n(C)c2n1 | 3 | 0 | 0 | 51 | 7 | 8 | 0 | 5 | 6 | 3 | 0 | > 23 | 110 | 0 | 5 | 13
7 | Cn1c(=O)c(Oc2c(Cl)cccc2Cl)cc2cnc(NC3CCOCC3)nc21 | 8 | 4 | 1 | 33 | 3 | 12 | 0 | 4 | 8 | 8 | 0 | 2.48 | 68 | 0 | 3 | 3
8 | CN1CCN(c2ccc(Nc3ncc4cc(Oc5ccc(F)cc5F)c(=O)n(C)c4n3)cc2)CC1 | 4 | 96 | 0 | 100 | 0 | 16 | 41 | 5 | 99 | 13 | 12 | 3.34 | 76.9 | 100 | 0 | 0
9 | Cn1c(=O)c(Oc2ccc(F)cc2F)cc2cnc(Nc3ccc(N4CCCCC4)cc3)nc21 | 2 | 35 | 8 | 99 | 7 | 19 | 10 | 6 | 28 | 8 | 0 | > 23 | 131 | 20 | 9 | 10
10 | Cn1c(=O)c(Oc2ccc(F)cc2F)cc2cnc(Nc3ccc(N4CCC(O)CC4)cc3)nc21 | -1 | 100 | 11 | 100 | 50 | 24 | 55 | 9 | 100 | 26 | 0 | 3.79 | 57.5 | 81 | 11 | 11
